Like-named read-outs stand apart in the source and are kept apart here.
Target: T1, PD-1/PD-L1 (Homo sapiens, UniProt Q9NZQ7)
T1 construct: made in house; host or cells: HEK293T
Test: PD-1/PD-L1 Homogenous Time-Resolved Fluorescence (HTRF) binding assay
Details: PD-L1-His 10 nM, PD-1-Ig 20 nM, read-out: Range or IC50
How it was run: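 Binding measured in dPBS with 0.1% BSA and 0.05% Tween-20, detected by HTRF with europium cryptate anti-Ig (1 nM final) and APC anti-His (20 nM final) added over the binding reaction. Counter-assays used human PD-1-Ig/PD-L2-His (20 and 5 nM) and CD80-His/PD-L1-Ig (100 and 10 nM).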

T1 sequence (Q9NZQ7 with tags, fused parts or gaps): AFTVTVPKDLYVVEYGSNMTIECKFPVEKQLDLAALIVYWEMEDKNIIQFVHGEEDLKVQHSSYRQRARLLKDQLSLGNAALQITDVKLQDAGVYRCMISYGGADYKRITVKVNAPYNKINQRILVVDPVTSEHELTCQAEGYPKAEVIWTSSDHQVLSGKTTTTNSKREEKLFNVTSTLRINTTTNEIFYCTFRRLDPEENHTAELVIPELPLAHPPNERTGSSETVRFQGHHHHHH

IC50 (value given as range class) | IC50 (numeric IC50) | Structure (SMILES)
0.21 to 10 nM |  | Cc1c(COc2cc(OCc3cncc(C#N)c3)c(CN[C@](C)(CO)C(=O)O)cc2Cl)cccc1-c1cccc(OCC2(CN3CC[C@@H](O)C3)CC2)c1C [Example 2341, (R)-2-((5-chloro-2-((5-cyanopyridin-3-yl)methoxy)-4-((3′-((1-(((R)-3-hydroxypyrrolidin-1-yl)methyl)cyclopropyl)methoxy)-2,2′-dimethyl-[1,1′-biphenyl]-3-yl)methoxy)benzyl)amino)-3-hydroxy-2-methylpropanoic Acid]
0.21 to 10 nM |  | N#Cc1cncc(COc2cc(OCc3cccc(-c4cccc(OCCCN5CC[C@@H](O)C5)c4Cl)c3Cl)c(Cl)cc2CNC[C@H](O)CO)c1 [Example 2034, 5-((4-chloro-5-((2,2′-dichloro-3′-(3-((R)-3-hydroxypyrrolidin-1-yl)propoxy)-[1,1′-biphenyl]-3-yl)methoxy)-2-((((S)-2,3-dihydroxypropyl)amino)methyl)phenoxy)methyl)nicotinonitrile]
 | 12 nM | Cc1c(COc2cc(OCc3cncc(C#N)c3)c(C=O)cc2Cl)cccc1-c1cccc(OCCCN2CC[C@@H](O)C2)c1Cl [Example 1509, (R)-5-((4-chloro-5-((2′-chloro-3′-(3-(3-hydroxypyrrolidin-1-yl)propoxy)-2-methyl-[1,1′-biphenyl]-3-yl)methoxy)-2-formylphenoxy)methyl)nicotinonitrile]
0.21 to 10 nM |  | Cc1c(CCCCN2CC[C@@H](O)C2)cccc1-c1cccc(COc2cc(OCc3cncc(C#N)c3)c(CNC(CO)CO)cc2Cl)c1C [Example 4064, (R)-5-((4-chloro-2-(((1,3-dihydroxypropan-2-yl)amino)methyl)-5-((3′-(4-(3-hydroxypyrrolidin-1-yl)butyl)-2,2′-dimethyl-[1,1′-biphenyl]-3-yl)methoxy)phenoxy)methyl)nicotinonitrile]
0.21 to 10 nM |  | Cc1c(COc2cc(OCc3cncc(C#N)c3)c(CN3CC[C@@H](O)C3)cc2Cl)cccc1-c1cccc(OCCCN2CC[C@@H](O)C2)c1Cl [Example 2001, 5-((4-chloro-5-((2′-chloro-3′-(3-((R)-3-hydroxypyrrolidin-1-yl)propoxy)-2-methyl-[1,1′-biphenyl]-3-yl)methoxy)-2-(((R)-3-hydroxypyrrolidin-1-yl)methyl)phenoxy)methyl)nicotinonitrile]
0.21 to 10 nM |  | Cc1c(COc2cc(OCc3cncc(C#N)c3)c(CNC(C)(CO)CO)cc2Cl)cccc1-c1cccc(OCCCN2CCC[C@H](CO)C2)c1C [Example 2295, (S)-5-((4-chloro-2-(((1,3-dihydroxy-2-methylpropan-2-yl)amino)methyl)-5-((3′-(3-(3-(hydroxymethyl)piperidin-1-yl)propoxy)-2,2′-dimethyl-[1,1′-biphenyl]-3-yl)methoxy)phenoxy)methyl)nicotinonitrile]
0.21 to 10 nM |  | COc1cc(OCc2cccc(-c3cccc(OCCCN4CC[C@@H](O)C4)c3C)c2C)c(Cl)cc1CN1CCCC[C@H]1C(=O)O [Example 3036, (2S)-1-(5-chloro-4-((3′-(3-((R)-3-hydroxypyrrolidin-1-yl)propoxy)-2,2′-dimethyl-[1,1′-biphenyl]-3-yl)methoxy)-2-methoxybenzyl)piperidine-2-carboxylic Acid]
0.21 to 10 nM |  | Cc1c(COc2cc(OCc3cncc(C#N)c3)c(CN3CCCC[C@H]3C(=O)O)cc2Cl)cccc1-c1cccc(OC[C@H]2CCN(CC(O)CO)C2)c1Cl (stereo partly drawn) [Example 2120, (2S)-1-(5-chloro-4-((2′-chloro-3′-(((3S)-1-(2,3-dihydroxypropyl)pyrrolidin-3-yl)methoxy)-2-methyl-[1,1′-biphenyl]-3-yl)methoxy)-2-((5-cyanopyridin-3-yl)methoxy)benzyl)piperidine-2-carboxylic Acid]
0.21 to 10 nM |  | Cc1c(COc2cc(OCc3cncc(C#N)c3)c(CNC(CO)CO)cc2Cl)cccc1-c1cccc(OCCCN2CCC(CO)CC2)c1C [Example 2294, 5-((4-chloro-2-(((1,3-dihydroxypropan-2-yl)amino)methyl)-5-((3′-(3-(4-(hydroxymethyl)piperidin-1-yl)propoxy)-2,2′-dimethyl-[1,1′-biphenyl]-3-yl)methoxy)phenoxy)methyl)nicotinonitrile]
0.21 to 10 nM |  | COC(=O)C1CN(CCCOc2cccc(-c3cccc(COc4cc(OCc5cncc(S(C)(=O)=O)c5)c(CN5CCCC[C@H]5C(=O)O)cc4Cl)c3C)c2C)CC1O (stereo partly drawn) [Example 1072, (2S)-1-(5-chloro-4-((3′-(3-(3-hydroxy-4-(methoxycarbonyl)pyrrolidin-1-yl)propoxy)-2,2′-dimethyl-[1,1′-biphenyl]-3-yl)methoxy)-2-((5-(methylsulfonyl)pyridin-3-yl)methoxy)benzyl)piperidine-2-carboxylic Acid]
0.21 to 10 nM |  | CC(CO)(CO)NCc1cc(Cl)c(OCc2cccc(-c3cccc(OCCCN4CC[C@@H](O)C4)c3Cl)c2Cl)cc1OCc1cc(Cl)ccc1Cl [Example 2112, (R)-2-((5-chloro-4-((2,2′-dichloro-3′-(3-(3-hydroxypyrrolidin-1-yl)propoxy)-[1,1′-biphenyl]-3-yl)methoxy)-2-((2,5-dichlorobenzyl)oxy)benzyl)amino)-2-methylpropane-1,3-diol]
0.21 to 10 nM |  | CCOC(=O)C1(O)CCN(CCCOc2cccc(-c3cccc(COc4cc(OCc5cncc(C#N)c5)c(CN[C@@H](CO)C(=O)O)cc4Cl)c3C)c2Cl)CC1 [Example 1095, (5-chloro-4-((2′-chloro-3′-(3-(4-(ethoxycarbonyl)-4-hydroxypiperidin-1-yl)propoxy)-2-methyl-[1,1′-biphenyl]-3-yl)methoxy)-2-((5-cyanopyridin-3-yl)methoxy)benzyl)-L-serine]
0.21 to 10 nM |  | COCC(COC)NCc1cc(Cl)c(OCc2cccc(-c3cccc(OCCCN4CC[C@@H](O)C4)c3Cl)c2C)cc1OCc1cncc(C#N)c1 [Example 2109, (R)-5-((4-chloro-5-((2′-chloro-3′-(3-(3-hydroxypyrrolidin-1-yl)propoxy)-2-methyl-[1,1′-biphenyl]-3-yl)methoxy)-2-(((1,3-dimethoxypropan-2-yl)amino)methyl)phenoxy)methyl)nicotinonitrile]
0.21 to 10 nM |  | CNC(=O)C1CCN(CCCOc2cccc(-c3cccc(COc4cc(OCc5cncc(C#N)c5)c(CN5CCCC[C@H]5C(=O)O)cc4Cl)c3C)c2Cl)CC1 [Example 1077, (S)-1-(5-chloro-4-((2′-chloro-2-methyl-3′-(3-(4-(methylcarbamoyl)piperidin-1-yl)propoxy)-[1,1′-biphenyl]-3-yl)methoxy)-2-((5-cyanopyridin-3-yl)methoxy)benzyl)piperidine-2-carboxylic Acid]
0.21 to 10 nM |  | CNC1CCN(CCCOc2cccc(-c3cccc(COc4cc(OCc5cncc(C#N)c5)c(CN5CCCC[C@H]5C(=O)O)cc4Cl)c3C)c2C)CC1 [Example 2269, (2S)-1-(5-chloro-2-((5-cyanopyridin-3-yl)methoxy)-4-((2,2′-dimethyl-3′-(3-(4-(methylamino)piperidin-1-yl)propoxy)biphenyl-3-yl)methoxy)benzyl)piperidine-2-carboxylic Acid]
10 to 100 nM |  | Cc1c(COc2ccc(CN3CCCC[C@H]3C(=O)O)c(C)c2Cl)cccc1-c1cccc(OCCCN2CC[C@@H](O)C2)c1C [Example 4524, (S)-1-(3-chloro-4-((3′-(3-((R)-3-hydroxypyrrolidin-1-yl)propoxy)-2,2′-dimethyl-[1,1′-biphenyl]-3-yl)methoxy)-2-methylbenzyl)piperidine-2-carboxylic Acid]

— patent US10745382B2 (BRISTOL-MYERS SQUIBB COMPANY, priority 2015, dated 2020)
